From publication PMC6133161, “Thiazoles with cyclopropyl fragment as antifungal, anticonvulsant, and anti-Toxoplasma gondii agents: synthesis, toxicity evaluation, and molecular docking study” (Medicinal Chemistry Research, 2018) come the findings set out here.

In the experiment the test system is all tested strains of Candida. Put plainly: Antifungal screening, all strains. It is filed as cell-based. An excerpt:
The examined compounds 3a–3j were screened in vitro for antibacterial and antifungal activities using the broth microdilution method according to European Committee on Antimicrobial Susceptibility Testing (EUCAST) (EUCAST [2003]) and Clinical and Laboratory Standards Institute guidelines (CLSI [2012]) against reference strains of microorganisms from American Type Culture Collection (ATCC), including fungi belonging to yeasts (Candida albicans ATCC 2091, Candida albicans ATCC 10231, Candida parapsilosis ATCC 22019 and Candida krusei ATCC 14243).
In the study of antifungal activity of the compounds 3a–3j, 15 clinical strains of different species of yeasts from Candida species, namely C. albicans, C. dubliniensis C. famata, C. inconspicua, C. krusei, C. tropicalis, C. glabrata, C. lambica, C. kefyr, C. lusitaniae, C. parapsilosis, C. guilliermondii, C. lusitaniae, C. pulcherrima and C. sake were also used. […] After incubation, the MIC was assessed spectrophotometric as the lowest concentration of the samples showing complete fungal growth inhibition. […] MFC was determined by removing the culture using for MIC determinations from each well and spotting onto appropriate agar medium. […] The lowest compounds concentration with no visible growth observed was assessed as a fungicidal concentration. […]

Regarding `FC(F)(F)c1ccc(-c2csc(N/N=C/C3CC3)n2)cc1` [Compound 3e, (E)-2-(2-(Cyclopropylmethylene)hydrazinyl)-4-(4-(trifluoromethyl)phenyl)thiazole], the antifungal activity entry was “inactive”.
